Results on 46 compounds are retold here after publication PMC5733478, “A Non-imaging High Throughput Approach to Chemical Library Screening at the Unmodified Adenosine-A3 Receptor in Living Cells” (Frontiers in Pharmacology, 2017).

Counter-ions that a name gives are not always drawn. Like-named read-outs stand apart in the source and are kept apart here.

The target of the test is T1, human A3AR (Homo sapiens, UniProt P0DMS8).
T1 construct: expressed in transfected cells
T1 sequence (P0DMS8 1-318): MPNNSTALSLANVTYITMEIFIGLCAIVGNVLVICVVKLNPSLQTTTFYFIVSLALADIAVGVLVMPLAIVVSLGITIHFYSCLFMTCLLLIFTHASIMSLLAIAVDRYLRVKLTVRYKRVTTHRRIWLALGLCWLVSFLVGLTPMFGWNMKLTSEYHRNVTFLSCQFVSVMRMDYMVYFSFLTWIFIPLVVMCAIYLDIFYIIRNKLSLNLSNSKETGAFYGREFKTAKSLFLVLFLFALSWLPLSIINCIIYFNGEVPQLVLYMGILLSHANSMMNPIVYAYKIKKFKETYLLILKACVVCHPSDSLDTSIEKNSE
The test can be described thus: LOPAC library primary screen: single concentration (10 μM) inhibition of 25 nM CA200645 binding, PHERAstar FS.

The mark [1] stands for this setting: compounds tested at 10 µM, % of control wells (1% DMSO and 25 nM CA200645), whole live cells expressing the A3AR, mean ± SD, three experiments in duplicate.

With `CC(C)Cc1ccc([C@H](C)C(=O)O)cc1` [S(+)-Ibuprofen], the “% 25 nM CA200645 binding” value was 107.7 ± 17.0%.
On the same count and under the same terms, the figure for `CNc1ncnc2c1ncn2[C@@H]1O[C@H](CO)[C@@H](O)[C@H]1O` [N6-Methyladenosine] is 61.1 ± 11.7%; for `C1CNCCN1.COc1cc(C(O)CO)ccc1O.COc1cc(C(O)CO)ccc1O` (centres unmarked) [MHPG piperazine] it is 95.1 ± 7.6%; for `CN1C(=O)CCS(=O)(=O)C1c1ccc(Cl)cc1` (centres unmarked) [Chlormezanone] it is 101.4 ± 10.9%.
On the same count and under the same terms, the figure for `O=C(O)c1cc(O)cc(C(=O)O)n1` [Chelidamic acid] is 110.2 ± 8.8%.
Same read-out and setting: the figure for `COC(=O)[C@@H](N)CCCN=C(N)N[N+](=O)[O-].Cl` is 109.0 ± 16.7%; for `NC(N)=NOCC[C@H](N)C(=O)O` [L-Canavanine] it is 101.1 ± 4.7%.
For the compound `CCN(CC)c1ncnc2c1ncn2[C@@H]1O[C@H](COP(=O)([O-])OP(=O)([O-])C(Br)(Br)P(=O)([O-])O)[C@@H](O)[C@H]1O.[Na+].[Na+].[Na+]` [ARL 67156 trisodium salt], the “% 25 nM CA200645 binding” value came out at 103.2 ± 16.2%.
For `NC/C=C/C(=O)O` [(E)-4-amino-2-butenoic acid], the “% 25 nM CA200645 binding” value worked out at 101.5 ± 12.6%.
For `CCCOC(=O)c1c(-c2ccccc2)nc(CC)c(C(=O)SCC)c1CCC` [MRS 1523, reference compound], the “% 25 nM CA200645 binding” value was determined as 57.3 ± 10.9%. In addition, the “% Total CA200645 binding” value (% of 25 nM CA200645 binding in the presence of 10 μM compound, LOPAC full screen, A3AR CHO cells) was 58.3 ± 11.4%.
On to `Cc1cc(N)c2ccccc2[n+]1CCCCCCCCCC[n+]1c(C)cc(N)c2ccccc21.[Cl-].[Cl-]` [Dequalinium chloride hydrate], for which the “% 25 nM CA200645 binding” value is reported as 86.1 ± 10.0%.
The same measure, in the same setting: then `NS(=O)(=O)c1cccc2c1c([N+](=O)[O-])cc1nc([O-])c([O-])nc12.[Na+].[Na+]` [NBQX disodium], with 94.5 ± 3.8%; and `Cl.Cl.Fc1ccc(C(OCCN2CCN(CCCc3ccccc3)CC2)c2ccc(F)cc2)cc1` [GBR-12909 dihydrochloride], with 95.7 ± 6.3%; and `COC(=O)[C@@H](N)Cc1ccc(O)c(O)c1.Cl`, with 98.6 ± 13.3%.
Take `CN(N=O)c1cc(O)ccc1O` [Dephostatin]: the “% 25 nM CA200645 binding” value stood at 75.4 ± 19.6%.
As to `Fc1ccc(C(c2ccc(F)cc2)N2CCN(C/C=C/c3ccccc3)CC2)cc1` [Flunarizine dihydrochloride], the “% 25 nM CA200645 binding” value is reported as 102.1 ± 8.8%.
With `C=CC[N+](C)(C)c1ccc(CCC(=O)CCc2ccc([N+](C)(C)CC=C)cc2)cc1.[Br-].[Br-]` [BW 284c51], the “% 25 nM CA200645 binding” value worked out at 100.9 ± 3.8%.
Still for that read-out and setting: then `Cc1ccc(C(=O)Nc2ccc(S(=O)(=O)[O-])c3cc(S(=O)(=O)[O-])cc(S(=O)(=O)[O-])c23)cc1NC(=O)c1cccc(NC(=O)Nc2cccc(C(=O)Nc3cc(C(=O)Nc4ccc(S(=O)(=O)[O-])c5cc(S(=O)(=O)[O-])cc(S(=O)(=O)[O-])c45)ccc3C)c2)c1.[Na+].[Na+].[Na+].[Na+].[Na+].[Na+]` [Suramin sodium salt], with 93.4 ± 9.0%.
As for `[H]/N=C(/NC)NCCC[C@H](N)C(=O)O` [NG-Monomethyl-L-arginine acetate], the “% 25 nM CA200645 binding” value under setting [1] came to 112.2 ± 7.1%.
For the compound `O=C1CCC(c2ccc(-n3ccnc3)cc2)=NN1` [Imazodan], the “% 25 nM CA200645 binding” value amounted to 97.4 ± 12.7%.
On to `CCN(CC)CC#CCOC(=O)C(O)(c1ccccc1)C1CCCCC1` (centres unmarked) [Oxybutynin Chloride], for which the “% 25 nM CA200645 binding” value is 101.0 ± 12.8%.
The same measure, in the same setting: the figure for `[Cl-].[Li+]` [Lithium Chloride] is 99.9 ± 5.2%; for `Oc1ccc(O)cc1` [Hydroquinone] it is 100.7 ± 6.6%; for `CN(C)CCCN1c2ccccc2Sc2ccc(C(F)(F)F)cc21` [Triflupromazine hydrochloride] it is 99.0 ± 16.0%.
Consider `C[N+]1(C)CCN(c2ccccc2)CC1.[I-]`, for which the “% 25 nM CA200645 binding” value was 102.6 ± 13.3%.
Still for that read-out and setting: then `Cl.Clc1ccc(N2CCN(Cc3c[nH]c4ncccc34)CC2)cc1` [L-745,870 hydrochloride], with 105.7 ± 4.1%.
Still for that read-out and setting: the figure for `Cc1cnc(NC(=O)C2=C(O)c3ccccc3S(=O)(=O)N2C)s1` [Meloxicam sodium] is 93.6 ± 6.8%; for `CN(CCCOc1ccc(Cc2ccccc2)cc1)CCC(=O)O.Cl` [SC-57461A] it is 83.2 ± 13.1%.
Same read-out and setting: the figure for `Nc1nc2c(nc(Br)n2[C@@H]2O[C@@H]3COP(=O)([O-])O[C@H]3[C@H]2O)c(=O)[nH]1.[Na+]` [8-Bromo-cGMP sodium] is 102.4 ± 7.4%; for `CN(C)CCCN1c2ccccc2CCc2ccccc21` [Imipramine hydrochloride] it is 99.2 ± 4.6%; for `CC(C)N(CCC(C(N)=O)(c1ccccc1)c1ccccn1)C(C)C` (centres unmarked) [Disopyramide phosphate] it is 98.5 ± 7.6%.
With `C[C@@H]1O[C@@H](O[C@H]2C[C@@H](O)[C@]3(CO)[C@H]4[C@H](O)C[C@]5(C)[C@@H](C6=CC(=O)OC6)CC[C@]5(O)[C@@H]4CC[C@]3(O)C2)[C@H](O)[C@H](O)[C@H]1O` [Ouabain], the “% 25 nM CA200645 binding” value was found to be 102.0 ± 3.5%.
On the same count and under the same terms, then `CCCCNC(=O)NS(=O)(=O)c1ccc(C)cc1` [Tolbutamide], with 101.8 ± 7.4%.
Still for that read-out and setting: the figure for `CCCNC(C)C(=O)Nc1ccccc1C` (centres unmarked) [Prilocaine hydrochloride] is 106.9 ± 9.7%; for `O=c1[nH]c2ccccc2n1CCCN1CCC(n2c(=O)[nH]c3cc(Cl)ccc32)CC1` [Domperidone] it is 99.6 ± 10.5%.
Take `CC1=C(C)C(=O)C(CCCCC#CCCCC#CCO)=C(C)C1=O` [AA-861]: the “% 25 nM CA200645 binding” value (% of control wells (1% DMSO and 25 nM CA200645), compounds at 10 µM, whole live cells expressing the A3AR, mean ± SD, three experiments in duplicate) is listed as 69.6 ± 8.4%.
For `CCCC1O[C@@H]2C[C@H]3[C@@H]4CCC5=CC(=O)C=C[C@]5(C)[C@H]4[C@@H](O)C[C@]3(C)[C@]2(C(=O)CO)O1` (some centres unmarked) [Budesonide], the “% 25 nM CA200645 binding” value was 92.7 ± 8.6%.
Regarding `CC(C)Oc1cccnc1N(C)C1CCN(Cc2ccccc2)CC1.O=C(O)/C=C\C(=O)O` [U-101958 maleate], the “% 25 nM CA200645 binding” value is given as 102.1 ± 9.0%.
In the case of `CSC(N)=NCCC[C@H](N)C(=O)O` [S-Methyl-L-thiocitrulline acetate], the “% 25 nM CA200645 binding” value under setting [1] turned out to be 102.0 ± 13.0%.
Take `COc1ccccc1OCCNCC(O)COc1cccc2[nH]c3ccccc3c12` (centres unmarked) [Carvedilol]: the “% 25 nM CA200645 binding” value worked out at 100.8 ± 14.2%.
The same measure, in the same setting: then `COc1ccc2c(c1)CC[C@@H]1[C@@H]2CC[C@]2(C)[C@@H](NCCCCCCN3C(=O)C=CC3=O)CC[C@@H]12` [U-73122], with 73.1 ± 7.4%; and `Cc1cnc(C(=O)NCCc2ccc(S(=O)(=O)NC(=O)NC3CCCCC3)cc2)cn1` [Glipizide], with 96.3 ± 1.2%; and `CC[C@H]1CN2CCc3cc(OC)c(OC)cc3[C@@H]2C[C@@H]1C[C@H]1NCCc2cc(OC)c(OC)cc21` [Emetine dihydrochloride hydrate], with 102.7 ± 9.1%.
Same read-out and setting: then `O=C(O)CCCCC1CCSS1` (racemic) [(±)-alpha-Lipoic Acid], with 99.7 ± 5.6%.
With `O=C(CCCN1CCC(O)(c2cccc(C(F)(F)F)c2)CC1)c1ccc(F)cc1` [Trifluperidol hydrochloride], the “% 25 nM CA200645 binding” value is given as 102.8 ± 9.3%.
Same read-out and setting: the figure for `COCCCC/C(=N\OCCN)c1ccc(C(F)(F)F)cc1` [Fluvoxamine maleate] is 100.9 ± 16.7%.
